Data published in the NIST ThermoML archive (doi:10.1016/j.tca.2016.02.005).
Numbers after ± are expanded uncertainties.

Assays:
[1] = xn = mol fraction of the nth substance listed; settings: 101.3 kPa, Liquid, x1 = 1; for speed of sound: Frequency=3 MHz, Sing-around technique in a fixed-path interferometer; for mass density: Vibrating tube method
[2] = refractive index (Na D-line) (dimensionless); xn = mol fraction of the nth substance listed; settings: 101.3 kPa, Liquid, Standard Abbe refractometry, x1 = 1
[3] = 101.3 kPa, Liquid; for speed of sound: Frequency=3 MHz, Sing-around technique in a fixed-path interferometer; for mass density: Vibrating tube method
[4] = refractive index (Na D-line) (dimensionless); settings: 101.3 kPa, Liquid, Standard Abbe refractometry

| Compound | speed of sound ([3]; 298.15 K) [m/s] | mass density ([3]; 298.15 K) [kg/m3] | speed of sound ([3]; 308.15 K) [m/s] | mass density ([3]; 308.15 K) [kg/m3] | speed of sound ([3]; 318.15 K) [m/s] | mass density ([3]; 318.15 K) [kg/m3] | speed of sound ([3]; 328.15 K) [m/s] | mass density ([3]; 328.15 K) [kg/m3] | refractive index ([4]; 298.15 K) | refractive index ([4]; 308.15 K) | refractive index ([4]; 318.15 K) | refractive index ([4]; 328.15 K) | further results |
| --- | --- | --- | --- | --- | --- | --- | --- | --- | --- | --- | --- | --- | --- |
| CCn1cc[n+](C)c1.F[B-](F)(F)F [1-ethyl-3-methylimidazolium tetrafluoroborate] + COCCO |  |  |  |  |  |  |  |  |  |  |  |  | speed of sound ([1]; 298.15 K): 1622.9 ± 1.6 m/s; mass density ([1]; 298.15 K): 1277.6 ± 2 kg/m3; speed of sound ([1]; 308.15 K): 1599.5 ± 1.6 m/s; mass density ([1]; 308.15 K): 1269.9 ± 2 kg/m3; speed of sound ([1]; 318.15 K): 1576.5 ± 1.6 m/s; mass density ([1]; 318.15 K): 1262.1 ± 2 kg/m3; speed of sound ([1]; 328.15 K): 1553.8 ± 1.6 m/s; mass density ([1]; 328.15 K): 1254.6 ± 2 kg/m3; refractive index ([2]; 298.15 K): 1.4103 ± 0.0004; refractive index ([2]; 308.15 K): 1.4077 ± 0.0004; refractive index ([2]; 318.15 K): 1.4051 ± 0.0004; refractive index ([2]; 328.15 K): 1.4023 ± 0.0004 |
| CCn1cc[n+](C)c1.F[B-](F)(F)F [1-ethyl-3-methylimidazolium tetrafluoroborate] | 1622.9 ± 1.6 | 1277.6 ± 2 | 1599.5 ± 1.6 | 1269.9 ± 2 | 1576.5 ± 1.6 | 1262.1 ± 2 | 1553.8 ± 1.6 | 1254.6 ± 2 | 1.4103 ± 0.0004 | 1.4077 ± 0.0004 | 1.4051 ± 0.0004 | 1.4023 ± 0.0004 |  |
| COCCO [2-methoxyethan-1-ol] | 1345.8 ± 1.5 | 960.9 ± 2 | 1311.3 ± 1.5 | 951.7 ± 2 | 1276.4 ± 1.5 | 942.7 ± 2 | 1241.9 ± 1.5 | 933.4 ± 2 | 1.4003 ± 0.0004 | 1.3961 ± 0.0004 | 1.3917 ± 0.0004 | 1.3876 ± 0.0004 |  |
